Patent publication US20100325754A1, “Compositions and methods for modulating oxidative burst in plant transformation” (Syngenta Participations AG, priority 2009, published 2010)

Legend:
[1] = test system: soybean immature seed explants; assay: Soybean transformation frequency (TAQMAN positive plants); assay type: cell-based, Soybean (Glycine max, Jack); settings: transgenic plants after rooting
[2] = test system: MicroTom tomato cotyledon explants; assay: Frequency of independent stable transgenic events and escapes in Agrobacterium-mediated MicroTom transformation (GUS staining)
Procedure: Sterilize MicroTom tomato seeds: (2.1 grams (g) of MicroTom tomato seeds, which equals approximately 900 seeds; supplied by Ball Horticultural Company, Chicago, Ill., USA. • add approximately 900 seeds to a sterile 250 milliliter (ml) flask • soak for 10 minutes (min) in the sterile 250 ml flask with ˜100 ml sterile double deionized (dd) water and then pour off the water. • add 100 ml of 70% ethanol to immerse the seeds for 1 min while stirring vigorously, pour off the ethanol, rinse the seeds 2 times with sterile dd water. • soak the seeds in 100 ml of 25% Chlorine bleach solution (chlorine bleach available under the registered trademark CLOROX®) with 3 drops of TWEEN™ 20 detergent for 10 min while stirring frequently, rinse the seeds three times with sterile dd water. • the seeds are germinated in MAGENTA™ box (available from bio-WORLD, Dublin, Ohio, United States of America) or culture box containing TGM medium (approximately 70 seeds/container), and the MAGENTA™ boxes are placed in a plastic box that is wiped down with 70% ethanol. The box cultures are placed in a dark incubator at 27° C. under the dark for 6 days (d). Seeds are distributed evenly and closely in the MAGENTA™ box, and pressed down on the media surface when placing the seeds on the germination medium.
Construct Information: The construct used in transformation contains a CaMV 35S promoter driving GUS (with GUS intron) and Nos promoter driving NPTII in Bin 19 binary vector (Frisch et al., 1995, Plant Molecular Biology 27:405-409). Agrobacterium tumefaciens strain EHA101 is used for transformation.
150 microliters (μl) of Vector 1 glycerol stock from −80° C. are placed on a fresh Luria Broth (LB)/rifampicin 50 microgram (μg)/ml/kanamycin 50 μg/ml plate on Friday of the week before transformation experiment, grown at about 28° C. for 3-4 d and stored in the refrigerator (4° C.) for the rest of the week. One day before inoculation, between 1:00 to 2:00 pm, a loopful of the bacterium cells from the freshly streaked plate is inoculated into 2 ml of liquid LB/rifampicin 50 μg/ml/kanamycin 50 μg/ml in a 17×100 Falcon tube, and grown at 28 C.° with 230 revolutions per minute (rpm) shaking. The next morning between 8:00 to 9:00 am, 0.2 ml of the overnight bacterium culture is inoculated into 2 ml of plain LB+0.2 millimeter (mM) acetosyringone in a 17×100 mm Falcon tube, and grown at about 28° C. with 230 rpm for 4 h.
Day 7 at about 2:00 pm. • 1) Cotyledon explants are isolated from seedlings 6 d after sowing seeds on TGM medium. • 2) About 25 cotyledon explants are prepared at a time by bathing them in a sterile petri dish plate containing 6 ml of Fillatti's suspension medium (FSM) liquid medium to prevent desiccation and trimming them at both ends using a #15 feather blade. Note: it is desirable to use the cotyledons that make a fairly tight “V” shape (two cotyledons that are at closed shape are acceptable to be used). • 3) Immediately after the trimming, the 25 cotyledon explants are gently placed on “feeder plates”—TCM medium. The “feeder plates” are made by overlaying 2 ml of tobacco suspension cells and a sterile WHATMAN™ filter (No. 1, Cat No. 1001090, VWR; Whatman Inc., Florham Park, N.J., United States of America) on the plates containing TCM medium. • 4) Cotyledon explants are gently poked with a sharp forceps and usually six pokes are made per explant. It is desirable that the sharp forceps gently touch the surface of explants and then make a slight movement on the touched surface in order to have a larger and shallower wounding surface that results in good transient expression. • 5) Right after poking, the cotyledons are inoculated with Agrobacterium by adding 3 ml of the Agrobacterium solution (OD600=0.1) suspended in FSM liquid medium to the top of cotyledons. The plates are incubated for 10 min at room temperature and the Agrobacterium solution is aspirated with a sterile pipette.

rice calli (Nipponbare) = assay: Rice stable callus transformation efficiency; assay type: cell-based; settings: co-cultivation and recovery media
Procedure: • 1. […] Check for any off-type seeds and discard these. • 2. Surface sterilize seeds in a 50 ml sterile tube with 70% ethanol for 1 to 2 min with shaking (ethanol treatment step is optional). • 3. Remove ethanol. • 4. Add 50% (v/v) CLOROX® bleach (2.4% Na hypochlorite) or 40% (v/v) ULTRA CLOROX® (˜3.2% Na hypochlorite) and one drop of TWEEN™-20 detergent, shake for 30-40 min on a shaker at 100-200 rpm. • 5. Remove CLOROX® solution and rinse with sterile water at least three times, until all sign of TWEEN™-20 detergent (soap bubbles) is gone. • 6. Seeds are ready to plate on sterile medium. • 7. Check for bacterial and fungal contaminations at 3 and 5 days later, respectively.
• 1. Soak sterilized seeds in sterile water for 1-2 d until fully imbibed (optional step) • 2. Plate pre-soaked or sterilized mature seeds onto rice callus induction medium (MS-CIM) at 12 seeds per plate. Culture in dark at 28° C. for 6 d prior to inoculation or for 4 weeks (wks) for production of embryogenic cultures. • 3. At 4 wks, selectively excise high quality target material and transfer to MS-CIM at 25 pieces per plate. Culture in dark for 8 d at 28° C. before inoculation.
• 1. If possible, choose bacteria from the area of the plate where there are many individual single colonies of bacteria growing for inoculation. Transfer ˜7 inoculation loops full of Agrobacterium culture to a 50 ml sterile plastic tube containing 20 ml liquid MS media with acetosyringone (As) added to 200 μM (add 1 μl As stock at 40 mg/ml per ml of suspension). Vortex to completely dissolve bacteria in liquid and bring volume to 50 ml. • 2. Measure the Agrobacterium suspension OD at 660 nm. Dilute the culture to an OD660 of 0.2-0.3 (higher concentrations can offer higher transformation frequencies but can cause damage/browning in some cultivars). Induce the bacteria with acetosyringone for at least 30 min. • 3. Inoculate cultured rice seeds or rice embryogenic culture responses by immersing target material in the bacterial suspension for 30 min. • 4. Try to make sure that all target pieces are completely immersed in the bacterial solution and shake regularly to ensure that this continues to be the case. • 5.
Transfer the inoculated seeds/cultures to multiple shoot-acetosyringone (MS-As) co-cultivation medium with sterile 85 mm filter paper. Each filter paper is wetted with 1 ml of MSInoc (see recipe below) liquid media with the concentrations of MT (in μM) listed below. Fifty (50) pieces per plate; incubate at 22° C. for 3 d. • A: Filter Paper • B: Filter Paper 2MT • C: Filter Paper 10MT • D: Filter Paper 100MT • E: Filter Paper 300MT • F: Filter Paper 1000MT
• 1. After ˜36 hours of co-cultivation, transfer the co-cultivated seeds/responses to Agrobacterium inhibition medium MS-400Tim (see recipe below) (1 plate→1 plate). Culture in the dark at 28° C. for ˜7 days. • 2. Score the scorable marker control plate for gene delivery efficiency at 4 to 5 days after co-cultivation • A: Recovery Media • B: Recovery Media+2MT • C: Recovery Media+10MT • D: Recovery Media+100MT • E: Recovery Media+300MT • F: Recovery Media+1000MT
• 1. Transfer calli to selection medium (17.5 g/l mannose/5 g/l sucrose). Culture in dark at ˜28° C. for 2 to 3 weeks, observing periodically for colony proliferation and contamination. • 2. Select mannose resistant embryogenic micro-colonies under microscope when proliferating colonies are big enough to grow independently, but not so big that they have begun to grow together. […]

[3] = test system: MicroTom tomato cotyledons; assay: Tissue extreme browning of MicroTom tomato cotyledon explants after Agrobacterium inoculation; assay type: cell-based, Solanum lycopersicum (tomato); settings: for Extreme Browning Rate: 3 days after selection
Description: For tissue browning and transient expression data collection, 3 d after selection cotyledon explant data are collected for tissue browning under a dissecting microscope, and then for transient expression by GUS staining.

[4] = epicatechin 50 mg/l, 6 weeks after selection
[5] = epicatechin 100 mg/l, 6 weeks after selection
[6] = epicatechin 1000 mg/l, 6 weeks after selection
[7] = resveratrol 50 μM, 6 weeks after selection
[8] = resveratrol 100 μM, 6 weeks after selection
[9] = resveratrol 200 μM, 6 weeks after selection
[10] = N-t-butyl hydroxylamine 10 μM, 4 weeks after selection
[11] = N-t-butyl hydroxylamine 50 μM, 4 weeks after selection
[12] = N-t-butyl hydroxylamine 100 μM, 4 weeks after selection

COc1ccc2[nH]cc(CCNC(C)=O)c2c1 [melatonin, N-Acetyl-5-methoxytryptamine]
Transformation frequency ([1]; melatonin 1 μM in infection and co-cultivation media, glyphosate selection): 7.6% +
Transformation frequency ([1]; melatonin 10 μM in infection and co-cultivation media): 7.5% +
Transformation frequency ([1]; melatonin 100 μM in infection and co-cultivation media): 4.5% +
Frequency of escapes ([2]; melatonin 10 μM, 4 weeks after selection): 1.7 ± 0.0%
Frequency of independent stable transgenic events ([2]; melatonin 10 μM, 4 weeks after selection, Table 5): 214.4% ± 6.2 A
Frequency of escapes ([2]; melatonin 50 μM, 4 weeks after selection): 0.0 ± 0.0%
Frequency of independent stable transgenic events ([2]; melatonin 50 μM, 4 weeks after selection, Table 5): 221.3% ± 47.7 A
Frequency of escapes ([2]; melatonin 100 μM, 4 weeks after selection): 0.0 ± 0.0%
Frequency of independent stable transgenic events ([2]; melatonin 100 μM, 4 weeks after selection, Table 5): 229.4% ± 55.7 A
Frequency of independent stable transgenic events ([2]; melatonin 100 μM, 4 weeks after selection, Table 6 (second set)): 213.3% ± 75.4 A
Frequency of independent stable transgenic events ([2]; melatonin 500 μM, 4 weeks after selection, Table 6): 121.7% ± 1.7 B
Frequency of independent stable transgenic events ([2]; melatonin 1000 μM, 4 weeks after selection, Table 6): 80.0% ± 14.1 B
frequency of independent stable transgenic events, increased to ([2]; melatonin at 10, 50 and 100 μM, from 88% in negative control without melatonin): 229%
% of stable callus sectors (rice calli (Nipponbare); melatonin 2 μM in inoculation, transgenic callus after selection, 50 explants): 148.0%
% of stable callus sectors (rice calli (Nipponbare); melatonin 10 μM in inoculation, after selection): 156.0%
% of stable callus sectors (rice calli (Nipponbare); melatonin 100 μM in inoculation, after selection): 140.0%
% of stable callus sectors (rice calli (Nipponbare); melatonin 300 μM in inoculation, after selection): 140.0%
% of stable callus sectors (rice calli (Nipponbare); melatonin 1000 μM in inoculation, after selection): 86.0%
Extreme Browning Rate ([3]; 10 μM melatonin in selection stage media, percentage of pokes with browning area ≧70%, Table 3): 21.5%
tissue browning reduced, compared to the negative control ([3]; 10 μM melatonin in transformation media): 3.0 fold
Extreme Browning Rate ([3]; 50 μM melatonin in selection stage media, Table 3): 11.8%
tissue browning reduced, compared to the negative control ([3]; 50 μM melatonin in transformation media): 5.5 fold
Extreme Browning Rate ([3]; 100 μM melatonin in selection stage media, Table 3 (first set)): 6.4%
tissue browning reduced, compared to the negative control ([3]; 100 μM melatonin in transformation media): 10.2 fold
Extreme Browning Rate ([3]; 100 μM melatonin, Table 4 (second set)): 22.2%
Extreme Browning Rate ([3]; 500 μM melatonin, Table 4): 21.0%
Extreme Browning Rate ([3]; 1000 μM melatonin, Table 4): 50.6%

Oc1cc(O)c2c(c1)O[C@H](c1ccc(O)c(O)c1)[C@H](O)C2 [Epicatechin, epicatechin]
Frequency of escapes [2, 4]: 1.7 ± 2.4%
Frequency of independent stable transgenic events [2, 4]: 418.3 ± 25.9 B %
Frequency of escapes [2, 5]: 0.0 ± 0.0%
Frequency of independent stable transgenic events [2, 5]: 521.7 ± 16.5 A %
Frequency of escapes ([2]; epicatechin 100 mg/l, 6 weeks after selection, listed as epicatechin): 0%
toxicity to plant tissues (inferred from reduced stable transformation frequency) ([2]; epicatechin 1000 mg/l): might be toxic to plant tissues at that concentration
Frequency of escapes [2, 6]: 1.7 ± 2.4%
Frequency of independent stable transgenic events [2, 6]: 51.7 ± 2.4 D %

Oc1ccc(C=Cc2cc(O)cc(O)c2)cc1 [Resveratrol, resveratrol]
Frequency of escapes [2, 7]: 4.4 ± 7.7%
Frequency of independent stable transgenic events [2, 7]: 297.8 ± 24.6 B %
reduction of escapes compared with the negative control ([2]; resveratrol 100 μM): 5 fold
Frequency of escapes [2, 8]: 1.1 ± 1.9%
Frequency of independent stable transgenic events [2, 8]: 356.7 ± 10.0 A %
Frequency of escapes [2, 9]: 1.1 ± 1.9%
Frequency of independent stable transgenic events [2, 9]: 227.8 ± 17.1 C %

CC(C)(C)NO [N-t-butyl hydroxylamine]
reduction of frequency of escapes compared with the negative control ([2]; N-t-butyl hydroxylamine 10 μM): 2.5 fold
Frequency of escapes [2, 10]: 4.4 ± 5.1%
Frequency of independent stable transgenic events [2, 10]: 245.6 ± 44.0 A %
Frequency of escapes [2, 11]: 6.7 ± 3.3%
Frequency of independent stable transgenic events [2, 11]: 222.2 ± 9.6 AB %
Frequency of escapes [2, 12]: 8.9 ± 1.9%
Frequency of independent stable transgenic events [2, 12]: 205.6 ± 10.2 AB %
